Earlier results, collected in patent US20120070472A1, “CHRONOTHERAPEUTIC COMPOSITIONS AND METHODS OF THEIR USE” (Circ Pharma Research & Development Limited, priority 2004, published 2012).

details: i/v

| Elimination Half-Life [h] | Structure (SMILES) |
| --- | --- |
| 2.4 | COc1ccccc1OCCNCC(O)COc1cccc2[nH]c3ccccc3c12 (stereo not drawn) [Carvedilol] |

same assay, conditions: in vivo

| Structure (SMILES) | Elimination Half-Life [h] |
| --- | --- |
| CC(=O)S[C@@H]1CC2=CC(=O)CC[C@]2(C)[C@H]2CC[C@@]3(C)[C@@H](CC[C@@]34CCC(=O)O4)[C@H]12 [Spironolactone] | 1.6 |
| CC(C)NCC(O)COc1cccc2ccccc12 (stereo not drawn) [Propranolol] | 3.9 |
| COc1ccc([C@@H]2Sc3ccccc3N(CCN(C)C)C(=O)[C@@H]2OC(C)=O)cc1 [Diltiazem] | 3.7 |
| O=C(NCCO[N+](=O)[O-])c1cccnc1 [Nicorandil] | 1.1 |
| CC(C)(C)NC[C@H](O)COc1nsnc1N1CCOCC1 [Timolol] | 4.1 |
| C=CCc1ccccc1OCC(O)CNC(C)C (stereo not drawn) [Alprenolol] | 2.5 |
| C=CCOc1ccccc1OCC(O)CNC(C)C (stereo not drawn) [Oxprenolol] | 2.5 |
| CCN(CC)CCNC(=O)c1ccc(NC(C)=O)cc1 [n-Acetylprocainamide] | 6.0 |

The next lines start with the values.

| Elimination Half-Life [h] | Structure (SMILES) |
| --- | --- |
| 2.7 | CCCC(=O)Nc1ccc(OCC(O)CNC(C)C)c(C(C)=O)c1 (stereo not drawn) [Acebutolol] |
| 6.0 | CC(C)N(CCC(C(N)=O)(c1ccccc1)c1ccccn1)C(C)C (stereo not drawn) [Disopyramide] |
| 3.8 | COC(=O)C1=C(C)NC(C)=C(C(=O)OC(C)C)C1c1cccc2nonc12 (stereo not drawn) [Isradipine] |
| 1.0 | NNc1nncc2ccccc12 [Hydralazine] |
| 4.9 | CC(CCc1ccccc1)NCC(O)c1ccc(O)c(C(N)=O)c1 (stereo not drawn) [Labetalol] |
| 1.5 | NS(=O)(=O)c1cc2c(cc1Cl)N=CNS2(=O)=O [Chlorothiazide] |
| 3.6 | CC(C)NCC(O)COc1cccc2[nH]ccc12 (stereo not drawn) [Pindolol] |
| 2.5 | NS(=O)(=O)c1cc2c(cc1Cl)NCNS2(=O)=O [Hydrochlorothiazide] |

same assay, conditions: po

| Elimination Half-Life [h] | Structure (SMILES) |
| --- | --- |
| 6.4 | COc1ccccc1OCCNCC(O)COc1cccc2[nH]c3ccccc3c12 (stereo not drawn) [Carvedilol] |
